melting point: 147 to 150 °C
Structure (SMILES): Cl.OC1(Cc2ccccc2)CCN(CCCc2c(-c3ccc(Cl)cc3)[nH]c3ccc(Cl)cc23)CC1

— patent US20010039286A1, “2-aryl indole derivatives and their use as therapeutic agents” (priority 2000, published 2001)
